Reference: BindingDB's records for doi:10.1021/np0302302 (Schering-Plough Research Institute, 2003)

Target: DNA primase DnaG (Escherichia coli) (UniProt P0ABS5)
Experiment: Inhibition of Escherichia coli DNA primase after 1 hr by [3H]rNTPs incorporation assay

DNA primase DnaG (Escherichia coli), sequence (P0ABS5 whole entry, looked up): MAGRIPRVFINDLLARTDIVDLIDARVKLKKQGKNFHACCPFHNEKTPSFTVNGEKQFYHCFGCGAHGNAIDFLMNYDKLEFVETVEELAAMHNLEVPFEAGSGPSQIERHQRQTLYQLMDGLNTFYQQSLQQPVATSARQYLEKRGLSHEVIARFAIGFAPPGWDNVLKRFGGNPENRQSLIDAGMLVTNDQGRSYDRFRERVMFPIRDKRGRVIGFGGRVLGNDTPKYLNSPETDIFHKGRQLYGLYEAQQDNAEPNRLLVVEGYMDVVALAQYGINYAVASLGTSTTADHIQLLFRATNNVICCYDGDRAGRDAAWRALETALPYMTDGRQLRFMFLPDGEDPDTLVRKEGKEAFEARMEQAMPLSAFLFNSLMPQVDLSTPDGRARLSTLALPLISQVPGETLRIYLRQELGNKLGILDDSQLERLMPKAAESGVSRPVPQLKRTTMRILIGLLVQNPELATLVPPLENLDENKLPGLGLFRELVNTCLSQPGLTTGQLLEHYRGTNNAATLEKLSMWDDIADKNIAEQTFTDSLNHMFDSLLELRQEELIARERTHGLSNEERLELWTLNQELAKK

C[C@H]1CCCC[C@H]2C(=O)C=C[C@H](O)[C@@H]2CC(=O)O1 [(4S,8aR,12S,12aR)-12-hydroxy-4-methyl-4,5,6,7,8,8a-hexahydro-1H-benzo[d]oxecine-2,9(12H,12aH)-dione]
EC50: 70 µM
